Experiment [1] addresses T1, VEGF Receptor tyrosine kinase-2 (Homo sapiens, UniProt P35968).
T1 construct: GST; made in house; host or cells: baculovirus-infected insect cells (Sf9)
The experiment in a line: VEGF Rezeptor-2 kinase assay. Conditions: Table I; read-out: VEGF-R2 IC50. The class given is biochemical. Here is the method: VEGF Rezeptor-2 Kinase Assay
Recombinant VEGF Receptor tyrosine kinase-2 was purified as GST-fusion protein from baculovirus-infected insect cells (Sf9). Poly-(Glu4Tyr), which was used as a kinase substrate, was purchased from the Sigma Company.
VEGF Receptor tyrosine kinase (90 ng/measuring point) was incubated for 10 minutes at 22° C. in the presence of various concentrations of test substances (0 μmol, as well as within the range of 0.001-30 μM) in 30 μl of assay buffer [40 mmol of Tris/HCl […], 10 mmol of MgCl2, 1 mmol of MnCl2, 3 μmol of Na orthovanadate, 1.0 mmol of dithiothreitol, 8 μmol of adenosine trisphosphate (ATP), 27 μg/measuring point of poly-(Glu4Tyr), 0.2 μCi/measuring point of ^33P-gamma ATP, 1% dimethyl sulfoxide]. The reaction was stopped by adding EDTA solution (250 mmol, pH 7.0, 10 μl/measuring point).
From each reaction batch, 10 μl was applied to P30 filter strips (Wallac Company), and non-incorporated 33P-ATP was removed by subjecting the filter strips to three washing cycles for 10 minutes each in 0.5% phosphoric acid. After the filter strips were dried for 1 hour at 70° C., the filter strips were covered with scintillator strips (MeltiLex™ A, Wallac Company) and baked on for 1 hour at 90° C. The amount of incorporated 33P (substrate phosphorylation) was determined by scintillation measurement in a gamma-radiation measuring device (Wallac).

Experiment [2] concerns MCF7. The experiment in a line: Proliferation assay MCF7. The experiment is classed as cell-based. Conditions: Homo sapiens, MCF7, 96 h, 4 days incubation, crystal violet. The text has this:
(§1) Cultivated human tumor cells (MCF7, […] human breast cancer cells, relative to ATCC HTB22; NCI-H460, human non-small-cell lung cancer cells, ATCC HTB-177, HCT 116, human colon cancer cells, ATCC CCL-247; DU 145, hormone-independent human prostate cancer cells, ATCC HTB-81; MaTu-MDR, hormone-independent, multiple pharmaceutical agent-resistant human breast cancer cells, EPO-GmbH, Berlin) were flattened out at a density of about 5000 cells/measuring point, depending on growth rates of the respective cells in a 96-well multititer plate in 200 μl of the corresponding growth medium. After 24 hours, the cells of one plate (zero-point plate) were colored with crystal violet (see below), while the medium of the other plates was replaced by fresh culture medium (200 μl), to which the test substances were added at various concentrations (0 μmol, as well as in the range of 0.01-30 μmol; the final concentration of the solvent dimethyl sulfoxide was 0.5%). The cells were incubated for 4 days in the presence of test substances. The cell proliferation was determined by coloring the cells with crystal violet: the cells were fixed by adding 20 μl/measuring point of an 11% glutaric aldehyde solution for 15 minutes at room temperature. After three washing cycles of the fixed cells with water, the plates were dried at room temperature. The cells were colored by adding 100 μl/measuring point of a 0.1% crystal violet solution (pH was set at 3 by adding acetic acid). After three washing cycles of the colored cells with water, the plates were dried at room temperature. The dye was dissolved by adding 100 μl/measuring point of a 10% acetic acid solution. The extinction was determined by photometry at a wavelength of 595 nm. The change of cell growth, in percent, was calculated by standardization of the measured values to the extinction values of the zero-point plate (=0%) and the extinction of the untreated (0 μm) cells (=100%).

Experiment [3] has as its system HCT116. The experiment in a line: Proliferation assay HCT116. Conditions: Homo sapiens, HCT-116, 96 h; Table II; 4 days incubation, crystal violet. The experiment is classed as cell-based.
Description: as §1

Experiment [4] deals with T2, CDK2/CycE (Homo sapiens, UniProt P24941).
T2 construct: GST; purchased ProQinase GmbH, Freiburg; host or cells: baculovirus-infected insect cells (Sf9)
The experiment in a line: CDK2/CycE kinase assay. The experiment is classed as biochemical. Here is the method:
Recombinant CDK2- and CycE-GST-fusion proteins, purified from baculovirus-infected insect cells (Sf9), were purchased from ProQinase GmbH, Freiburg. Histone IIIS, which was used as a kinase substrate, was purchased from the Sigma Company.
The reaction was stopped by adding EDTA solution (250 mmol, pH 8.0, 14 μl/measuring point).
From each reaction batch, 10 μl was applied to P30 filter strips (Wallac Company), and non-incorporated ^33P-ATP was removed by subjecting the filter strips to three washing cycles for 10 minutes each in 0.5% phosphoric acid. After the filter strips were dried for one hour at 70° C., the filter strips were covered with scintillator strips (MeltiLex™ A, Wallac Company) and baked for one hour at 90° C. The amount of incorporated ^33P (substrate phosphorylation) was determined by scintillation measurement in a gamma-radiation measuring device (Wallac).

Experiment [5] has as its system H460. The experiment in a line: Proliferation assay H460. The class given is cell-based. The settings on record: Homo sapiens, NCI-H460, 96 h; Table II; 4 days incubation, crystal violet.
Description: as §1

In experiment [6] the test system is DU145. The experiment in a line: Proliferation assay DU145. The experiment is classed as cell-based. The settings on record: Homo sapiens, DU-145, 96 h; Table II; 4 days incubation, crystal violet.
Description: as §1

Experiment [7] addresses T3, CDK1/CycB (Homo sapiens, UniProt P06493).
T3 construct: GST; purchased ProQinase GmbH, Freiburg; host or cells: baculovirus-infected insect cells (Sf9)
The experiment in a line: CDK1/CycB kinase assay. The experiment is classed as biochemical. Conditions: Table I. Here is the method: Recombinant CDK1- and CycB-GST fusion proteins, purified from baculovirus-infected insect cells (Sf9), were purchased from ProQinase GmbH, Freiburg. Histone IIIS, which was used as a kinase substrate, is commercially available from the Sigma Company.
CDK1/CycB (200 ng/measuring point) was incubated for 15 minutes at 22° C. in the presence of various concentrations of test substances (0 μm, as well as within the range of 0.01-100 μm) in assay buffer [50 mmol of tris/HCl, pH 8.0, 10 mmol of MgCl2, 0.1 mmol of Na ortho-vanadate, 1.0 mmol of dithiothreitol, 0.5 μm of adenosine triphosphate (ATP), 10 μg/measuring point of histone IIIS, 0.2 μCi/measuring point of 33P-gamma ATP, 0.05% NP40, 12.5% dimethyl sulfoxide]. The reaction was stopped by adding EDTA solution (250 mmol, pH 8.0, 14 μl/measuring point).
From each reaction batch, 10 μl was applied to P30 filter strips (Wallac Company), and non-incorporated 33P-ATP was removed by three washing cycles of the filter strips for 10 minutes each in 0.5% phosphoric acid. After the filter strips were dried for 1 hour at 70° C., the filter strips were covered with scintillator strips (MeltiLex™ A, Wallac Company) and baked for one hour at 90° C. The amount of incorporated 33P (substrate phosphorylation) was determined by scintillation measurement in a gamma-radiation measuring device (Wallac).

The subject of experiment [8] is MaTu-ADR. The experiment in a line: Proliferation assay MaTu-ADR. The class given is cell-based. Conditions: Homo sapiens, 96 h, read-out: Proliferation IC50 MaTu-ADR.
Description: as §1

The mark [9] stands for this setting: Table II, read-out: Proliferation IC50 MCF7.
Setting [10] is: Table I, read-out: CDK2/CycE IC50.
Setting [11] is: Table II, 4 days incubation, crystal violet.
Where [12] appears, read: Table II, read-out: Inhibition IC50 CDK2/CycE.

In US7312225B2, “Macrocyclic pyrimidines, their production and use as pharmaceutical agents” (Bayer Schering Pharma AG, priority 2002, dated 2007) one finds IC50 data, which are given here for nine molecules.

pIC50: −log10 of the molar value. Where a name gives a salt, the structure may show the parent alone. Read-outs that look alike come from different tables or passages of the source. Some results are limits rather than exact numbers.

T3 sequence (P06493 whole entry): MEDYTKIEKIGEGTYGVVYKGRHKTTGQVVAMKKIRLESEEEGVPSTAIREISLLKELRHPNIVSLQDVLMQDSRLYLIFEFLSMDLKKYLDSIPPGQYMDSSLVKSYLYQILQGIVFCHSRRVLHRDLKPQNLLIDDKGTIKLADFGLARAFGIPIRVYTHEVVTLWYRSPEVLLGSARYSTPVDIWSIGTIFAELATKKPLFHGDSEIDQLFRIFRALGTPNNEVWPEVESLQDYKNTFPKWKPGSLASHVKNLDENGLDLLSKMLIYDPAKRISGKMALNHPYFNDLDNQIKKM
T3 sequence (P14635 whole entry partner): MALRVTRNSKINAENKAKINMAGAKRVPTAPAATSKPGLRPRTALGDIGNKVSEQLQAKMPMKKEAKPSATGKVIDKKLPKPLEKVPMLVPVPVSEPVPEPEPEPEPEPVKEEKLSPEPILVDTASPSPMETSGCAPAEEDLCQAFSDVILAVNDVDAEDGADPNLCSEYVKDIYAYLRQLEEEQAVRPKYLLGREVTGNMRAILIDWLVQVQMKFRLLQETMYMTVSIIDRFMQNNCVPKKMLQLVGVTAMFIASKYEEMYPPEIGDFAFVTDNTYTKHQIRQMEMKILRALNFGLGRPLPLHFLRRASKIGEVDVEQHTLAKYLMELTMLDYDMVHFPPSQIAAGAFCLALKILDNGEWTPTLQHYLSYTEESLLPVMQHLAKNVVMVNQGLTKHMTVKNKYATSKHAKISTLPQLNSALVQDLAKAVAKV
T1 sequence (P35968 20-1356): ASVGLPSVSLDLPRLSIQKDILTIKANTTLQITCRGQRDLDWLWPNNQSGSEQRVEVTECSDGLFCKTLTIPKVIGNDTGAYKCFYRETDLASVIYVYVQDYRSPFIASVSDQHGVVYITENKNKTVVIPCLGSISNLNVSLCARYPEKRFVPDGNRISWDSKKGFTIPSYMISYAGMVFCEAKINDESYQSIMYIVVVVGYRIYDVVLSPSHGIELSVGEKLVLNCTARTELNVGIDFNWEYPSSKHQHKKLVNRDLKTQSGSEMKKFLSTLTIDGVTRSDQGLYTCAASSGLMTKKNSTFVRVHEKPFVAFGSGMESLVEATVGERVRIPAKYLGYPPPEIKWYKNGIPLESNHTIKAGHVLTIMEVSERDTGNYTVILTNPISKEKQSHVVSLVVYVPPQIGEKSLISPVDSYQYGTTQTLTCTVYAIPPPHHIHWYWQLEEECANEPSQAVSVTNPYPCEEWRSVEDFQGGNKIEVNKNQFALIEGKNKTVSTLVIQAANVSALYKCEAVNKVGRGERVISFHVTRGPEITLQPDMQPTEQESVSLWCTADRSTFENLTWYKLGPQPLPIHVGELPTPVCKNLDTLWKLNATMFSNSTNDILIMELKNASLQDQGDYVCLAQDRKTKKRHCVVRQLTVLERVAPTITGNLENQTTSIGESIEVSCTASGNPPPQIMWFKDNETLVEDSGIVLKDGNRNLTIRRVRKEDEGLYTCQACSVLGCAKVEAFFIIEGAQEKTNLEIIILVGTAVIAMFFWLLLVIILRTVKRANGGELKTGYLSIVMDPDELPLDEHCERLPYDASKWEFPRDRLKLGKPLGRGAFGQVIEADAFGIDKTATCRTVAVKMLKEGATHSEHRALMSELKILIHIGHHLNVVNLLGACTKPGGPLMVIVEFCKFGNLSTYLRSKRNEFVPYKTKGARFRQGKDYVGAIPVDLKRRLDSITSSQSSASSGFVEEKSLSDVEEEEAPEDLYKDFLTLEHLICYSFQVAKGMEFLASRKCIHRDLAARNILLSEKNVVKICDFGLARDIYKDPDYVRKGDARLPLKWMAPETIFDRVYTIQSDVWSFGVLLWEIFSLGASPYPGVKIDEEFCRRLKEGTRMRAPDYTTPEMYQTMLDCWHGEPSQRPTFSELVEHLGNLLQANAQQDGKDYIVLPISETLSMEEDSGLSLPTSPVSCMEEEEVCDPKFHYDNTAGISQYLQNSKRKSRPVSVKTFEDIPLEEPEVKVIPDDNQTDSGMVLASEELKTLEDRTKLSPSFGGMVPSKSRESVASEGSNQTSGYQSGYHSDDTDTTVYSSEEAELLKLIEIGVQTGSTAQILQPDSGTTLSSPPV

Regarding `O=S1(=O)NCCCCNc2nc(ncc2Br)Nc2csc1c2` [Example 14.10], the pIC50 was 6.72 in experiment [1]; 5.72 in experiment [2] (Table I, read-out: MCF7 IC50); 6.52 in experiment [2] (setting [9]); 7.00 in experiment [3]; 7.19 in experiment [4] (setting [10]); 7.00 in experiment [5]. In experiment [6], this molecule showed a pIC50 of 6.40.
Consider `OCC1CCCOc2cccc(c2)Nc2ncc(Br)c(n2)N1` (stereo not drawn) [Example 14.18], for which the pIC50 in experiment [1] is 6.43; in experiment [2] (Table I, read-out: MCF7 IC50) it was 5.68; in experiment [4] (setting [10]) it was 7.52; in experiment [7] it was 7.10.
Consider `Nc1cc2cc(c1)S(=O)(=O)NCCCNc1nc(ncc1Br)N2` [Example 1.4, 1^5-Bromo-4-thia-2,5,9-triaza-1(2,4)-pyrimidina-3(1,3)-benzenacyclononaphan-3^5-amine-4,4-dioxides], for which the pIC50 in experiment [1] is 7.96; in experiment [8] (setting [11]), 7.00; in experiment [2] (Table I, read-out: MCF7 IC50), 6.40; in experiment [2] (setting [9]) it was 6.40; in experiment [3] it was more than 7.00; in experiment [5], 6.70. Further, the pIC50 in experiment [6] is 6.15.
Turning to `O=S1(=O)NCCC(CO)Nc2nc(ncc2Br)Nc2cccc1c2` (single isomer, unassigned) [1.3 (+) Enantiomer], the pIC50 in experiment [1] is 7.16; in experiment [2] (Table I, read-out: MCF7 IC50), 6.05; in experiment [4] (setting [10]) it was 7.64.
As to `NS(=O)(=O)c1ccc2cc1OCCCCNc1nc(ncc1Br)N2` [Example 8.0, 1^5-Bromo-4-oxa-2,9-diaza-1(2,4)-pyrimidina-3(1,3)-benzenacyclononaphane-3^4-sulfonamide], the pIC50 in experiment [1] was 6.85; in experiment [8] (setting [11]), 6.40; in experiment [2] (Table I, read-out: MCF7 IC50), 5.89; in experiment [2] (setting [9]), 5.89; in experiment [3], 6.40; in experiment [4] (setting [10]), 6.89. In addition, the pIC50 was 6.89 in experiment [4] (setting [12]), 6.30 in experiment [5], 6.30 in experiment [6] and 7.10 in experiment [7].
For `O=[N+]([O-])c1cc2cc(c1)S(=O)(=O)NCCCNc1nc(ncc1Br)N2` [Example 1.5, 1^5-Bromo-3^5-nitro-4-thia-2,5,9-triaza-1(2,4)-pyrimidina-3(1,3)-benzenacyclononaphane-4,4-dioxide hydrochloride], the pIC50 in experiment [1] is 7.16; in experiment [8] (setting [11]) it was 6.22; in experiment [2] (Table I, read-out: MCF7 IC50), 6.05; in experiment [2] (setting [9]) it was 6.05; in experiment [3], 6.40; in experiment [5], 6.22. The pIC50 in experiment [6] was 5.89; in experiment [7] it was 7.55.
With `O=S1(=O)NCCCNc2nc(ncc2Br)Nc2cccc1c2` [Example 1.1, 1^5-Bromo-4-thia-2,5,9-triaza-1(2,4)-pyrimidina-3(1,3)-benzenacyclononaphane-4,4-dioxide], the pIC50 in experiment [1] is 7.40; in experiment [8] it was 6.92; in experiment [2] (Table I, read-out: MCF7 IC50), 6.70; in experiment [3], 6.70; in experiment [5] it was 6.52; in experiment [6], 5.66. The same molecule gave a pIC50 in experiment [7] of 7.70.
As to `O=S1(=O)NCCCOc2nc(ncc2Br)Nc2cccc1c2` [Example 3.0, 1^5-Bromo-9-oxa-4-thia-2,5-diaza-1(2,4)-pyrimidina-3(1,3)-benzenacyclononaphane-4,4-dioxide], the pIC50 is 7.05 in experiment [1]; 5.80 in experiment [2] (Table I, read-out: MCF7 IC50); 6.80 in experiment [4] (setting [10]); 7.30 in experiment [7].
In the case of `O=S1(=O)NCCC(CO)Nc2nc(ncc2Br)Nc2cccc1c2` (racemic) [Example 1.3, rac-1^5-Bromo-4-thia-2,5,9-triaza-1(2,4)-pyrimidina-3(1,3)-benzenacyclonaphane-8-methanol-4,4-dioxide Hydrochloride], the pIC50 in experiment [1] was more than 8.00; in experiment [8] (setting [11]), 5.55; in experiment [2] (Table I, read-out: MCF7 IC50), 6.00; in experiment [2] (setting [9]), 6.00; in experiment [3], 6.05; in experiment [4] (setting [10]) it was 7.64. In addition, the pIC50 was 7.64 in experiment [4] (setting [12]), 5.77 in experiment [5], 5.54 in experiment [6] and 7.55 in experiment [7].
